Each structure is given as a SMILES string. pIC50: −log10 of the molar value.

Results on ten compounds are retold here after ChEMBL document CHEMBL4476883, “Hydroxy formamide derivatives and their use” (2017).

In assay [1] the target is T1, Tolloid-like protein 2 (Homo sapiens, UniProt Q9Y6L7).
T1 sequence (Q9Y6L7 whole entry): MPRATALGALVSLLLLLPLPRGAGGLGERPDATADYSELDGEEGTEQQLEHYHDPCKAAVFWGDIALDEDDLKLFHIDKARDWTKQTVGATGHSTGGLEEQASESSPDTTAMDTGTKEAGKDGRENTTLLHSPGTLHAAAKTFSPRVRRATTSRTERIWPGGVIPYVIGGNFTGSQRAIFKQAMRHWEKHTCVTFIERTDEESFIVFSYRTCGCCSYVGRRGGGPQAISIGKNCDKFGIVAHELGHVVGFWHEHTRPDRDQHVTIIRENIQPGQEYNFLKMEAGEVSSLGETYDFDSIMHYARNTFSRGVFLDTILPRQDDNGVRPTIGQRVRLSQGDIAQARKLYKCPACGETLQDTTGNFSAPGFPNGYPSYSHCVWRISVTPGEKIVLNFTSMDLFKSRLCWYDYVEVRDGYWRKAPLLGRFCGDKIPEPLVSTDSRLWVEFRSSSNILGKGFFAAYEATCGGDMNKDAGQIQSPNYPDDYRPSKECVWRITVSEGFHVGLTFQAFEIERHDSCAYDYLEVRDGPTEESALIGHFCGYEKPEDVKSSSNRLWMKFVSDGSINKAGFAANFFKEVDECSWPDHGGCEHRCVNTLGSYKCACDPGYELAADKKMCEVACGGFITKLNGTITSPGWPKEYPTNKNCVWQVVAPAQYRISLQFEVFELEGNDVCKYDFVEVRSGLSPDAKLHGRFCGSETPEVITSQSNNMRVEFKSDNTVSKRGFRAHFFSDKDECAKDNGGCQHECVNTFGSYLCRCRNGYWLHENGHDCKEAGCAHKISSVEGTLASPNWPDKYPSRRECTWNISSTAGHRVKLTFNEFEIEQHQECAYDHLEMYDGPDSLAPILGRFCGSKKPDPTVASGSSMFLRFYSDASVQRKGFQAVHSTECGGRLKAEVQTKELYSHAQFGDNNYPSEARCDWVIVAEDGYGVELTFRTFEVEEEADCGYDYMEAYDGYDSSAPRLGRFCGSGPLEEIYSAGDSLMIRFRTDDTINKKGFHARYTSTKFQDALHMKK
The assay is described as follows: Inhibition of C-terminal Avi-6x-His epitope tagged and N-terminal human RAGE signal sequence tagged recombinant human TLL2 (26 to 1015 amino acids) expressed in CHOE1A cells incubated for 60 mins with promyostatin peptide substrate by FRET based assay. It counts as cell-based.

The nature of assay [2]: Reduction in mature collagen deposition levels in human cardiac fibroblasts incubated for 24 to 48 hrs by immunostaining based assay. It counts as functional.
For assay [3], the target named is Tolloid-like protein 1 (Homo sapiens, UniProt O43897, I156V/N221S/V284A). The assay is described as follows: Inhibition of recombinant human TLL1 I156V/N221S/V284A mutant expressed in CHOE1A cells pre-incubated for 10 mins before promyostatin peptide substrate addition and measured after 60 mins by FRET based assay. It counts as cell-based.
Chain of Tolloid-like protein 1 (O43897 148-1013 I156V/N221S/V284A limits assumed): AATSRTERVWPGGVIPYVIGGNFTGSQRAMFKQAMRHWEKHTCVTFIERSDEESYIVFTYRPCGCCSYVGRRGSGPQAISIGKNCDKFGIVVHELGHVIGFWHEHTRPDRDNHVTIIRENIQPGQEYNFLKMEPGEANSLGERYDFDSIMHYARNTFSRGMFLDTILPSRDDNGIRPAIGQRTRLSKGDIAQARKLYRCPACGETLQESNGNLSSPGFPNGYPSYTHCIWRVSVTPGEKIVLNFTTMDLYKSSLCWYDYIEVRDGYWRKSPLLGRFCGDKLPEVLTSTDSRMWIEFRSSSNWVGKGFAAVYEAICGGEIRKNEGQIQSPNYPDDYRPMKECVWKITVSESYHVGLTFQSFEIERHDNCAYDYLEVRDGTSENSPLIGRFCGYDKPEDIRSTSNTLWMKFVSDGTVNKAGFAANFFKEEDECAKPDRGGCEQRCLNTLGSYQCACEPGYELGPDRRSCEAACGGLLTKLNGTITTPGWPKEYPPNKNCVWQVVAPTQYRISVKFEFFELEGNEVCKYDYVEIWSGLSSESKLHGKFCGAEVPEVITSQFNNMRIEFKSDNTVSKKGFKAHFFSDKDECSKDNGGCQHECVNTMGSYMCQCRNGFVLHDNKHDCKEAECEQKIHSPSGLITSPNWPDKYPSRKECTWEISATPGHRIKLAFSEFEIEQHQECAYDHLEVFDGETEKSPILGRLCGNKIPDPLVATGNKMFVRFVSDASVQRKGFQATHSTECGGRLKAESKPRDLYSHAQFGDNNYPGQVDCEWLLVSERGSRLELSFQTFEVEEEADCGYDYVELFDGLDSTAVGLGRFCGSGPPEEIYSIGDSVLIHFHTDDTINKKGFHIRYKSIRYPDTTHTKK
Assay [4] is described as follows: Reduction in PICP levels in human cardiac fibroblasts incubated for 24 to 48 hrs by ELISA. Format: functional.
Assay [5] has as its target T2, Bone morphogenetic protein 1 (Homo sapiens, UniProt P13497).
T2 sequence (P13497 whole entry): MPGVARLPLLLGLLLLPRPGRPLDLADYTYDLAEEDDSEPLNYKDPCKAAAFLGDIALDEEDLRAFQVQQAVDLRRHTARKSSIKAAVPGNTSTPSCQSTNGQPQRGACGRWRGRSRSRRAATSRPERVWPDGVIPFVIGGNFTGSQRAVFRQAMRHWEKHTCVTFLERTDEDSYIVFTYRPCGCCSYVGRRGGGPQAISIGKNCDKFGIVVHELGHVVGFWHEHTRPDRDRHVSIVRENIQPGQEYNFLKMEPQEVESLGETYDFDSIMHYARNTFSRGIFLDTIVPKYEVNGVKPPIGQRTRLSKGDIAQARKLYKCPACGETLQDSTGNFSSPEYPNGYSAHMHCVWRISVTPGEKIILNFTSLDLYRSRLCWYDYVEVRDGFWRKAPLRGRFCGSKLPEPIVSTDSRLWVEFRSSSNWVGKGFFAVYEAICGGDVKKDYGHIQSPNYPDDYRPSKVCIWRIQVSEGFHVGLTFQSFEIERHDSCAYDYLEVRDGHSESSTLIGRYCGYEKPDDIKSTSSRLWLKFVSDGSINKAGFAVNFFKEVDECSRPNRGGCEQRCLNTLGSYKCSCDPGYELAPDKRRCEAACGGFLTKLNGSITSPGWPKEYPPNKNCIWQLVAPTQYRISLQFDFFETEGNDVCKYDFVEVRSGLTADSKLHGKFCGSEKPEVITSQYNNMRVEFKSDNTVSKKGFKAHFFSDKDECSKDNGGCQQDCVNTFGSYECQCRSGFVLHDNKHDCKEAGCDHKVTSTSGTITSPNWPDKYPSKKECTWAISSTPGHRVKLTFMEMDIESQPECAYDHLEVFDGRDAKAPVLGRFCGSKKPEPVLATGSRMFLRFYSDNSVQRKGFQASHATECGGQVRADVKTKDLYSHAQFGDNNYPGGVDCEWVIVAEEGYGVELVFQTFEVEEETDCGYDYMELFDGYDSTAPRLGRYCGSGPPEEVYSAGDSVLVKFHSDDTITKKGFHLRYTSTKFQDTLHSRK
The assay can be described thus: Inhibition of C-terminal FLAG-6x-His epitope tagged and N-terminal human RAGE signal sequence tagged human BMP1 (23 to 721 amino acids) expressed in CHO-E1A cells pre-incubated for 10 mins before promyostatin peptide substrate addition and measured after 30 mins using 50 nM BMP1 by FRET based assay. Format: cell-based.

Assay [6] deals with T2, Bone morphogenetic protein 1. The assay is described as follows: Inhibition of C-terminal FLAG-6x-His epitope tagged and N-terminal human RAGE signal sequence tagged human BMP1 (23 to 721 amino acids) expressed in CHO-E1A cells pre-incubated for 10 mins before promyostatin peptide substrate addition and measured after 60 mins using 0.5 nM BMP1 by FRET based assay. Format: cell-based.

Turning to `CCCCC[C@@H](C(=O)NCNC(=O)c1cccc(-c2ccc(CC(=O)O)c(OCC)c2)c1)[C@@H](CC)N(O)C=O`, the negative logarithm of the IC50 (pIC50) in assay [1] was over 6.20; in assay [2], over 5.80; in assay [3], over 6.40; in assay [4], over 4.70; in assay [5], over 6.60; in assay [6], over 6.90.

For `CCCCC[C@@H](C(=O)NCNC(=O)c1cccc(-c2ccc(CC(=O)N[C@@H](CC(=O)O)C(=O)O)c(OCC)c2)n1)[C@@H](CC)N(O)C=O`, the negative logarithm of the IC50 (pIC50) in assay [1] is over 6.20; in assay [2], over 5.80; in assay [3], over 6.40; in assay [4], over 4.70; in assay [5], over 6.60; in assay [6], over 6.90.

With `CCCCC[C@@H](C(=O)NCNC(=O)c1ccnc(-c2ccc(C(=O)O)c(OCC)c2)n1)[C@@H](CC)N(O)C=O`, the pIC50 in assay [1] was over 6.20; in assay [2], over 5.80; in assay [3], over 6.40; in assay [4] it was over 4.70; in assay [5], over 6.60; in assay [6], over 6.90.

As to `CCCCC[C@@H](C(=O)NCNC(=O)c1cccc(-c2ccc(C(=O)N[C@@H](CC(=O)O)C(=O)O)c(OCC)c2)n1)[C@@H](CC)N(O)C=O`, the pIC50 in assay [1] was over 6.20; in assay [2], over 5.80; in assay [3] it was over 6.40; in assay [4], over 4.70; in assay [5], over 6.60; in assay [6], over 6.90.

Take `CCCCC[C@@H](C(=O)NCNC(=O)c1ccnc(-c2ccc(P(=O)(O)O)c(OCC)c2)n1)[C@@H](CC)N(O)C=O`: the pIC50 in assay [1] was over 6.20; in assay [2], over 5.80; in assay [3], over 6.40; in assay [4], over 4.70; in assay [5] it was over 6.60; in assay [6] it was over 6.90.

`CCCCC[C@@H](C(=O)NCNC(=O)c1cccc(-c2cc(C(=O)O)cc(S(N)(=O)=O)c2)n1)[C@@H](CC)N(O)C=O`: the pIC50 in assay [1] was over 6.20; in assay [2] it was over 5.80; in assay [3], over 6.40; in assay [4], over 4.70; in assay [5], over 6.60; in assay [6] it was over 6.90.

`CCOc1cc(-c2cccc(C(=O)NCNC(=O)[C@H](CCc3ccccc3)[C@@H](CC)N(O)C=O)n2)ccc1C(=O)O`: the negative-log IC50 (pIC50) in assay [2] was over 5.80; in assay [4], over 4.70; in assay [5], over 6.60; in assay [6], over 6.90.

Turning to `CCCCC[C@@H](C(=O)NCNC(=O)c1cncc(-c2ccc(P(=O)(O)O)c(OCC)c2)n1)[C@@H](CC)N(O)C=O`, the pIC50 in assay [1] is over 6.20; in assay [2], over 5.80; in assay [3], over 6.40; in assay [4], over 4.70; in assay [5] it was over 6.60; in assay [6], over 6.90.

As for `CCCCC[C@@H](C(=O)NCNC(=O)c1cccc(-c2cc(OCC)cc(C(=O)O)c2)n1)[C@@H](CC)N(O)C=O`, the pIC50 in assay [1] was over 6.20; in assay [2], over 5.80; in assay [3], over 6.40; in assay [4] it was over 4.70; in assay [5], over 6.60; in assay [6], over 6.90.

On to `CCCCC[C@@H](C(=O)NCNC(=O)c1cccc(-c2cc(OCC)cc(C(=O)NCCN)c2)n1)[C@@H](CC)N(O)C=O`, for which the pIC50 in assay [2] is over 5.80; in assay [4] it was over 4.70; in assay [5], over 6.60; in assay [6], over 6.90.
